The values below come from ChEMBL document CHEMBL4265938, “Donepezil-based multi-functional cholinesterase inhibitors for treatment of Alzheimer's disease” (Eur J Med Chem, 2018).

Data set [1] is described as follows: Antioxidant activity assessed as trolox equivalent of AAPH-induced radical scavenging activity at 70 nM preincubated for 15 mins followed by AAPH addition measured every min for 80 mins by ORAC-FL assay. In kind it is functional.
The target in data set [2] is T1, Cholinesterase (Equus caballus, UniProt P81908). Put plainly: Inhibition of equine serum BuChE.
In data set [3] the target is T2, Acetylcholinesterase (Electrophorus electricus, UniProt O42275). The data set can be described thus: Inhibition of electric eel AChE.
Data set [4] addresses T3, Acetylcholinesterase (Homo sapiens, UniProt P22303). The data set can be described thus: Inhibition of recombinant human AChE using acetylthiocholine iodide as substrate preincubated for 5 mins followed by substrate addition measured after 5 mins by Ellman's method. Background: Ellman's reagent forms a yellow product with free thiols.
In data set [5] the target is Amyloid-beta precursor protein (Homo sapiens) (UniProt P05067). The data set can be described thus: Inhibition of recombinant human HFIP-pretreated amyloid beta (1 to 42) self aggregation at 10 uM after 24 hrs by ThT-based fluorometric method relative to control.
The target of data set [6] is T2, Acetylcholinesterase. Put plainly: Inhibition of electric eel AChE using acetylthiocholine iodide as substrate preincubated for 5 mins followed by substrate addition measured after 5 mins by Ellman's method.
Data set [7] in a line: Selectivity ratio of IC50 for electric eel AChE to IC50 for equine serum BuChE.
The target of data set [8] is T2, Acetylcholinesterase. The data set can be described thus: Mixed type inhibition of electric eel AChE.
The target of data set [9] is T1, Cholinesterase. Put plainly: Mixed type inhibition of equine serum BuChE.
The target of data set [10] is T3, Acetylcholinesterase. Put plainly: Inhibition of recombinant human AChE using acetylthiocholine iodide as substrate preincubated for 20 mins followed by substrate addition measured after 5 mins by Ellman's method.
The target of another data set is Beta-secretase 1 (Homo sapiens, UniProt P56817). Put plainly: Inhibition of BACE-1 (unknown origin).
In data set [11] the target is T4, Amine oxidase [flavin-containing] B (Homo sapiens, UniProt P27338).
T4 sequence (P27338 whole entry): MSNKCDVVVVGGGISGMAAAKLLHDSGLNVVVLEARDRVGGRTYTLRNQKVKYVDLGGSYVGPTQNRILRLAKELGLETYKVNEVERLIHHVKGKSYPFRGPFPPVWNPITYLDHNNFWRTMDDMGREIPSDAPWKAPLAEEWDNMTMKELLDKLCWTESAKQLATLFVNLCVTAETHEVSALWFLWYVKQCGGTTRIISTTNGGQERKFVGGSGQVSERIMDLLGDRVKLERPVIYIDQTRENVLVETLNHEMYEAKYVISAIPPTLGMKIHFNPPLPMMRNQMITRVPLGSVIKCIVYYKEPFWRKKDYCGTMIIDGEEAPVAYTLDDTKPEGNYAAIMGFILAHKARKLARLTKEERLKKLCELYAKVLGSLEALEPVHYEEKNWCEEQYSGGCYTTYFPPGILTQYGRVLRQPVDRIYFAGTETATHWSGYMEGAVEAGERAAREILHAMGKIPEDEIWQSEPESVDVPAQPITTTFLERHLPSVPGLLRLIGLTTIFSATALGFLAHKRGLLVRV
Put plainly: Inhibition of recombinant human MAOB using tyramine hydrochloride as substrate preincubated for 30 mins followed by substrate addition measured for 1 hr by fluorometric method.

Data set [12] deals with T1, Cholinesterase. Put plainly: Inhibition of equine serum BuChE using butyrylthiocholine iodide as substrate preincubated for 20 mins followed by substrate addition measured after 30 mins by Ellman's method.
The target of data set [13] is T2, Acetylcholinesterase. The data set can be described thus: Inhibition of electric eel AChE using acetylthiocholine iodide as substrate preincubated for 20 mins followed by substrate addition measured after 5 mins by Ellman's method.
Data set [14] in a line: Effective permeability of the compound. In kind it is ADME. The following applies: not told; read-out: Peff.
Data set [15] concerns the target T4, Amine oxidase [flavin-containing] B. Put plainly: Inhibition of human MAOB.
Data set [16] concerns the target T5, Amine oxidase [flavin-containing] A (Homo sapiens, UniProt P21397).
T5 sequence (P21397 whole entry): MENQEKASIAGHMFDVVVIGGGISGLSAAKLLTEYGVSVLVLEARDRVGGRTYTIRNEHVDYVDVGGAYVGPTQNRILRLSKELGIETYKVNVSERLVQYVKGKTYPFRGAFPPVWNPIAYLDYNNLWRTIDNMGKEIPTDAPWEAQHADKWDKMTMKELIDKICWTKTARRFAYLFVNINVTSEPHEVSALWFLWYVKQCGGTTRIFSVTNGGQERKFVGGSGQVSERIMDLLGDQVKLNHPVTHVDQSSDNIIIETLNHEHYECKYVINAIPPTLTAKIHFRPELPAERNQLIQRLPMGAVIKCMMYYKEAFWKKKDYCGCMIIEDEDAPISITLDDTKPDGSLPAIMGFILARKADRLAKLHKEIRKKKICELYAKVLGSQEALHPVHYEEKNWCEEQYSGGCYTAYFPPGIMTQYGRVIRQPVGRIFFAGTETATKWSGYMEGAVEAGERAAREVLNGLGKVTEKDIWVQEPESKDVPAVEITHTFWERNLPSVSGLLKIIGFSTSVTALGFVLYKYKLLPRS
Put plainly: Inhibition of human MAOA.

The term IC50 denotes the concentration that gives 50% inhibition. For orientation: inhibition means the relative decrease from the control value, in per cent.

Structures are written as SMILES.

T1 sequence (P81908 whole entry): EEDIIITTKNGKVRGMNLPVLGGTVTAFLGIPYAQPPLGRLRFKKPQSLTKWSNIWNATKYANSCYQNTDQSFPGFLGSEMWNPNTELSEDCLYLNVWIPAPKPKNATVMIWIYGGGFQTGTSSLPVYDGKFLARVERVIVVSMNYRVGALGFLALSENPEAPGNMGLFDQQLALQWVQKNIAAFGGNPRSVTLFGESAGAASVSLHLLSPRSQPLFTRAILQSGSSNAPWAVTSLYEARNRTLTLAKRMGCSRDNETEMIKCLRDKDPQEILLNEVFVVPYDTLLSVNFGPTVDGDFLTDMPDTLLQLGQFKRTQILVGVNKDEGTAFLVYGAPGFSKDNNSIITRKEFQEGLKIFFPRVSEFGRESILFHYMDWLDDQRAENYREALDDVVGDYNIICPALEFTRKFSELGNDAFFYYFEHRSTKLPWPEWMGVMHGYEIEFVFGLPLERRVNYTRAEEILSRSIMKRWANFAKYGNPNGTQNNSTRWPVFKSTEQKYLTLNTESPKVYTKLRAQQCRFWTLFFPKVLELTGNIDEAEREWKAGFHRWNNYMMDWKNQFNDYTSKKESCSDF
T2 sequence (O42275 whole entry): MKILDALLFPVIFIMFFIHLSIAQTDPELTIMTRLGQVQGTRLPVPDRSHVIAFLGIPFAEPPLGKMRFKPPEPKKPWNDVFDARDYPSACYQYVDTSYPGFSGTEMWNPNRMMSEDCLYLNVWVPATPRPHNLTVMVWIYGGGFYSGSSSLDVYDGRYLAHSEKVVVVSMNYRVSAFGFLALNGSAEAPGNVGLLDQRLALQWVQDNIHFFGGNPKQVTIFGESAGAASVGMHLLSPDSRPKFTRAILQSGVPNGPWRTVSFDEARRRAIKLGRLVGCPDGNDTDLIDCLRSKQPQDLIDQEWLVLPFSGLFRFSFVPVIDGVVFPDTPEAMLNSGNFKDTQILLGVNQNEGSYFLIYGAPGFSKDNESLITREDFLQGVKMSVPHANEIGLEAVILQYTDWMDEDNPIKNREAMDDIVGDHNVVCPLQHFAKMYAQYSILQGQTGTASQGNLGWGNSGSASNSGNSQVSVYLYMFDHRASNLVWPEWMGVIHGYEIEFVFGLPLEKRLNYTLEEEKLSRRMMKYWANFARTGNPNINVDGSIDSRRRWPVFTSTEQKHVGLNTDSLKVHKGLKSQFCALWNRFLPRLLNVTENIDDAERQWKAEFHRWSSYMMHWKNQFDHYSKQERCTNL
Sequence of Beta-secretase 1 (P56817 whole entry): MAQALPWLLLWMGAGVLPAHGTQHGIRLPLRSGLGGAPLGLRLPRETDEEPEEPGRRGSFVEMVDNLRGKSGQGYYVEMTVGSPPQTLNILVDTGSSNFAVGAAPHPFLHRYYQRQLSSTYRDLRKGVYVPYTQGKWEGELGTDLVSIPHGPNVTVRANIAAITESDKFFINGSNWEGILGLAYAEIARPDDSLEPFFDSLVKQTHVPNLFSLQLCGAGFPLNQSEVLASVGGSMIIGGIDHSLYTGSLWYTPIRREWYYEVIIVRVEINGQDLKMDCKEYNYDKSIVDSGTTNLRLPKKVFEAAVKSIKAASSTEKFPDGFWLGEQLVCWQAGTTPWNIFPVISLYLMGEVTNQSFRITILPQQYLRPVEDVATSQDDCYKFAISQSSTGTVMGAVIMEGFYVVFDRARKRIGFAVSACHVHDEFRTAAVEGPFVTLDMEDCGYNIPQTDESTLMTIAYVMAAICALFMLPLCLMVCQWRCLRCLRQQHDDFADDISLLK
T3 sequence (P22303 whole entry): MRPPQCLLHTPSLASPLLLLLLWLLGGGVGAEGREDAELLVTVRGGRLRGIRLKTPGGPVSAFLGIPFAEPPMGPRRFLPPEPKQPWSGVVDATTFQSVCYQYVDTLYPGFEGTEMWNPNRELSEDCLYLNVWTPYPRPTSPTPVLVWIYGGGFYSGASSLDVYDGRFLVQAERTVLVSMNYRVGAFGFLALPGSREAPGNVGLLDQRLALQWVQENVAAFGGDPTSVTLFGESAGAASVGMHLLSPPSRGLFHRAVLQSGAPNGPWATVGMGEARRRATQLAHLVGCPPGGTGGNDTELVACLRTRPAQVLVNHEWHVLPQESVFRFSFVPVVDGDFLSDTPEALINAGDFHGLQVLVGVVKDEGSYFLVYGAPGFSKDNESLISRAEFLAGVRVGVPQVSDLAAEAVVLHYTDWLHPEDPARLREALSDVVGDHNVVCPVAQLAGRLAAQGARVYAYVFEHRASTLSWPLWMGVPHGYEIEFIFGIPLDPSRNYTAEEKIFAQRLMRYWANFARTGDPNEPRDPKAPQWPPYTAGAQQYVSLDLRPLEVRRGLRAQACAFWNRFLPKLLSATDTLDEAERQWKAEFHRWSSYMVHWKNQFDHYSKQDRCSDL
Sequence of Amyloid-beta precursor protein (Homo sapiens) (P05067 whole entry): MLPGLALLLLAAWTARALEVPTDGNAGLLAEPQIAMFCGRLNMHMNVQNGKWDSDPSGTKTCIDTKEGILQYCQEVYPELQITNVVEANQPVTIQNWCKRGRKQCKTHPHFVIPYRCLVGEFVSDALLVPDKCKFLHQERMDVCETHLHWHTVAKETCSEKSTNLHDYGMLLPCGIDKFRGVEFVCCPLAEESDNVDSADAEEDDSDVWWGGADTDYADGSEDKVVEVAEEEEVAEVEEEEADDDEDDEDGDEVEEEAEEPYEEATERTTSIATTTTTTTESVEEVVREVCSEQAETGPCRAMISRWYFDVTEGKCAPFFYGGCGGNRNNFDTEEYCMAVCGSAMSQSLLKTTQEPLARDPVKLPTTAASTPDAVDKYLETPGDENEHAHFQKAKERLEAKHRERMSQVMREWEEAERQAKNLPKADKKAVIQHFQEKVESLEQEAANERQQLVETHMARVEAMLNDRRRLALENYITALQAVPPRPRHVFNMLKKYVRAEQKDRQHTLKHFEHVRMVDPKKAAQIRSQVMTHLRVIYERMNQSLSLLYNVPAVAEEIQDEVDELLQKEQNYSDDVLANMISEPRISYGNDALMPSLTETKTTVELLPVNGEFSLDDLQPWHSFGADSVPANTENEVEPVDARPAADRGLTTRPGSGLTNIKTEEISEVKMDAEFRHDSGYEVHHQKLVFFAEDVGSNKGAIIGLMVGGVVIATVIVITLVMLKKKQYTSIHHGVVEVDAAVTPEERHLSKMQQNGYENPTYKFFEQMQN

Turning to `COc1cc(/C=C/C(=O)N(CCCC2CCN(Cc3ccccc3)CC2)CC(=O)Nc2c(C)cccc2Cl)ccc1O`, the Activity in [1] amounted to 5.32 equiv. The values for the IC50 at Cholinesterase [2] and against Acetylcholinesterase [3] were 52.3 nM and 29.3 nM, respectively.
For the compound `CN(CCCCCN1C(=O)c2ccccc2S1(=O)=O)Cc1ccccc1`, the IC50 on Acetylcholinesterase [4] amounted to 33 nM; against Acetylcholinesterase [6], 36 nM. Moreover, the inhibition in data set [5] came to 22.2%.
On to `Cn1c(=O)n(C)c2cc(S(=O)(=O)NCC3CCN(Cc4ccc(F)cc4)CC3)ccc21`, for which the Ratio IC50 in data set [7] turned out to be 66.1. Also, the half-inhibitory concentration (IC50) was 2050 nM against Acetylcholinesterase [8] and 31 nM against Cholinesterase [9].
With `C#CCNc1nc(NCCCCC2CCN(Cc3ccccc3)CC2)c(C#N)cc1C#N`, the half-maximal inhibitory concentration (IC50) at Acetylcholinesterase [10] was found to be 1 nM.
On to `COc1cc2c(cc1OC)C(=O)/C(=C/C1CCN(Cc3ccccc3)CC1)C2`, for which, on Beta-secretase 1, the IC50 is 697 nM.
On the same count and under the same terms, to `COc1ccc2c(c1)C/C(=C\C1CCN(Cc3ccccc3)CC1)C2=O` belongs 333 nM.
On to `C#CCNc1nc(NCCCC2CCN(Cc3ccccc3)CC2)c(C#N)cc1C#N`, for which the figures for the IC50 (in data set [11]; on Cholinesterase [12]; against Acetylcholinesterase [13]) were 3950 nM, 600 nM and 1.1 nM, respectively.
`O=C(NCCC1CCN(Cc2ccccc2)CC1)c1ccc(Cl)cn1`: the half-inhibitory concentration (IC50) against Cholinesterase [2] was 1230 nM; against Acetylcholinesterase [3], 220 nM; in [15], 3140 nM; in [16], 13400 nM. Besides, the Papp in data set [14] is 10.4 ×10⁻⁶ cm/s.
